Measured values taken from US7385039B2, “Methods and compositions for regulating imidazoline receptors” (priority 1998, dated 2008).
Read-outs that look alike come from different tables or passages of the source.

Legend:
α2-Adrenergic Sites = test: [125I]p-iodoclonidine competition binding to bovine RVLM membranes, α2-adrenergic sites; settings: for Ki: read-out: Ki, α2-Adrenergic Sites (low affinity sites)
Text: Whole bovine brains and adrenal glands were obtained from a local slaughterhouse. Brains were immediately placed on a chilled glass plate, washed with ice-cold Krebs'-Henseleit buffer, and dissected. The rostral medulla was isolated by transecting the brainstem rostrally at the posterior margin of the trapezoid body and caudally 1 cm caudal to the obex. The pia-arachnoid was removed, and the lateral medulla was isolated by a sagittal section through the lateral margin of the pyramids, and then bisected. The ventral half was defined as the ventrolateral medulla (VLM). Brain samples were transported on ice to the laboratory and processed immediately.
Fresh bovine VLM was homogenized by using a polytron (Tekmar Tissuemizer, setting 80 for 2×15 sec) in 20 volumes of ice-cold Hepes-buffered isotonic sucrose (pH brought to 7.4 with Tris base) containing the protease inhibitors (1,10)-phenanthroline (100 μM) and phenylmethylsulfonyl fluoride (50 μM) in order to inhibit degradation of receptor protein. Bovine adrenomedullary cells were homogenized in 15 ml Hepes-buffered isotonic sucrose by 10 strokes in a glass-glass hand-held homogenizer. All three homogenates were centrifuged at 1000×g for 5 min at 4° C. to remove nuclei and debris. The pellets (P1) were resuspended in 20 ml of homogenization buffer, and centrifuged again at 1000×g for 5 min. The combined supernatants were centrifuged at 48,000 g for 18 min at 4° C., and the resulting P2 pellet was resuspended in 10 to 25 volumes of 50 mM Tris-HCl buffer (pH 7.7) containing 5 mM EDTA. After recentrifugation at 48,000 g for 18 min, the resulting membrane pellet was resuspended in Tris-HCl containing 25 mM NaCl, preincubated for 30 min at 25° C., chilled on ice, centrifuged again, resuspended a final time in Tris-HCl alone, centrifuged, flash-frozen, and stored at −70° C. for up to three months.
Radioligand binding assays with [^3H]clonidine or [^125I]p-iodoclonidine for determination of specific membrane binding to VLM and renal medulla imidazoline sites and α2-adrenergic receptors were performed by a modification of methods previously described (Ernsberger P. et al., 1997, J. Hypertension 1997, 15:S9-S23). Membranes were slowly thawed and resuspended in Tris-Hepes buffer (5.0 mM; pH 7.7 at 25° C., containing 0.5 mM EDTA, 0.5 mM EGTA, and 0.5 mM MgCl2) at a concentration of 1 mg protein/ml for the VLM, 4 mg protein/ml for the renal medulla, and 0.2 mg protein/ml for adrenomedullary cells. Assays were conducted in a total volume of 250 μl in polypropylene 96-well plates (Beckman Macrowell), and each well contained 125 μl membrane suspension, 25 μl radioligand, and 100 μl drug or vehicle. Incubations were initiated by the addition of membrane and were carried out for 30 min at 22° C. Nonspecific binding was defined in the presence of 10 μM BDF-6143, an imidazoline adrenergic agent. Specific α2-adrenergic binding was defined by inhibition with (−)epinephrine (0.1 mM). In experiments using catecholamines, all samples contained ascorbic acid in a final concentration of 0.001%. Incubations were terminated by vacuum filtration using a cell harvester (Brandel) equipped with Teflon tubing to reduce absorption of the radioligand over glass fiber filters (Schleicher & Schuell #34) which were preincubated for 4 h at 4° C. in 0.03% polyethylimine to reduce nonspecific binding to the filter. The filters were washed four times with 5 ml ice-cold Tris-HCl, placed in scintillation vials, covered with 4 ml scintillation cocktail (BioSafe II, Research Products International), and counted at 50% efficiency (Beckman LS5801). Protein was assayed by the bicinchoninic acid method.
Data were obtained as dpm and transferred to the Equilibrium Binding Data Analysis (EBDA) program for initial processing; 4 to 10 experiments were analyzed simultaneously by using the LIGAND program for nonlinear curve-fitting. Protein assay data were also analyzed by nonlinear curve-fitting.
Competition binding assays. […]

I1R = I1R model: [3H]arachidonic acid release from PC-12 cells; assay type: cell-based
Procedure: Assays for measuring imidazoline receptor-mediated arachidonic acid release from PC12 cells is as described in Ernsberger et al., (1995, FASEB J. 9:A114).
I1R model: [^3H]Arachidonic acid (AA) release from PC-12 cells. Assays (Emsberger, P. (1998) J. Auton. Nerv. Syst. 72, 147-154 Ernsberger, P. (1998) J. Auton. Nerv. Syst. 72, 147-154) were done after a 30 min washout to attain a stable background. Cells were superfused with 0.01% BSA in Krebs buffer for seven 1-min fractions (baseline), then treated with 10 μM or 100 μM I-4-AA-RP alone, or together with efaroxan (10 μM), a prototypical I1-antagonist/I3-agonist. Controls included baseline release with vehicle alone (0-7 min) or vehicle containing efaroxan (5 min) before adding I-4-AA-RP. [^3H]products (>98% AA) collected in each 1-min fraction were expressed as fractional release defined as % total radioactivity incorporated into cells, corrected for [^3H]AA previously released (Ernsberger, P. (1998) J. Auton. Nerv. Syst. 72, 147-154).

[1] = With cimetidine (I-sites masked)

SMILES: O=C(O)Cc1cn(C2OC(COP(=O)(O)O)C(O)C2O)cn1 [IAA-RP, 1-(β-D-ribofuranosyl)-imidazole-4-acetic acid 5′ phosphate]
- Percent Sites, α2-Adrenergic Sites (α2-Adrenergic Sites; Control (no masking ligand)): 29 ± 5%
- Ki (α2-Adrenergic Sites; Control (no masking ligand)): 57 ± 33 µM
- Percent Sites, α2-Adrenergic Sites (α2-Adrenergic Sites; [1]): 100 ± 10%
- Ki (α2-Adrenergic Sites; [1]): 210 ± 32 µM
- Percent Sites, α2-Adrenergic Sites (α2-Adrenergic Sites; With epinephrine (α2Rs masked)): 14 ± 4%
- Ki (α2-Adrenergic Sites; With epinephrine (α2Rs masked)): 60 ± 48 µM
- fold lower affinity of remaining (low affinity) sites versus high affinity component (α2-Adrenergic Sites; no masking ligands): > 300 fold
- increase of [3H]AA release (I1R; 10 μM): 68±29%
- increase of [3H]AA release (I1R; 100 μM): 177±89%
- stimulation of [3H]AA release (in words) (I1R; IAA-R 10 μM-1 mM): stimulated release of arachidonic acid
